Laboratory results taken from PMC5979572, “Imine Deaminase Activity and Conformational Stability of UK114, the Mammalian Member of the Rid Protein Family Active in Amino Acid Metabolism” (International Journal of Molecular Sciences, 2018).

Tests used:
UK114 = target: T1, UK114 (Capra hircus, UniProt P80601); assay: decrease of semicarbazone formation rate, […] nm, imino acid generated in situ; type: biochemical; conditions: 50 mM sodium pyrophosphate pH 8.7, 25 °C, 10 mM semicarbazide, catalase
T1 construct: gene RIDA; full length 137 residues, recombinant from E. coli (pET-15b), N-terminal His-tag cut by thrombin leaving GSH before Met1; homotrimer
T1 sequence (P80601 1-137): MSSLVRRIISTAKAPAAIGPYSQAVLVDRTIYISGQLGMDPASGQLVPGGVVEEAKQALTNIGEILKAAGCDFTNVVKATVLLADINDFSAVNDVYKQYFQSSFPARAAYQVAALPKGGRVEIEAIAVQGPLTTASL

[1] = target: T2, D-amino acid oxidase (DAAO) (Sus scrofa, UniProt P00371); assay: H2O2 production (HRP / o-dianisidine) and semicarbazone formation; type: biochemical; conditions: 50 mM sodium pyrophosphate pH 8.7, 25 °C
T2 construct: gene DAO; native, purified from pig kidneys

[2] = target: the molecule itself; assay: SEC; analytical gel filtration on a calibrated Superdex 75 (10/30) column equilibrated with 0.9% NaCl; standards BSA dimer, BSA monomer, carbonic anhydrase, cytochrome c

T2 sequence (P00371 whole entry): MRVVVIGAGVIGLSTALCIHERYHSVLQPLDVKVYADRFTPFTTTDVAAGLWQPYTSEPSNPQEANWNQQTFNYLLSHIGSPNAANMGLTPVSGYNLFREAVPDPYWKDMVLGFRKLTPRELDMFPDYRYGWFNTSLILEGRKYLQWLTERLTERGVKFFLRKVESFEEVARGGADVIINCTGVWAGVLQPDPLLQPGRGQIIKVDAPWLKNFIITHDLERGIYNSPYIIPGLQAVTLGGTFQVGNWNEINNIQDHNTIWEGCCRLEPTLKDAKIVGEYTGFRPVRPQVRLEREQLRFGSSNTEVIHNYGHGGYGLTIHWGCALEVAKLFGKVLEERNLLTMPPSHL

CC(=N)C(=O)O [2-iminopropionate]
decrease of semicarbazone formation rate, 248 nm, imino acid generated in situ (UK114; imino acid from 5 mM L-Ala + LAAO or D-Ala + DAAO): the highest specificity is indeed observed with 2-iminopyruvate (2-iminopropionate)

CC(C)C[C@@H](N)C(=O)O [D-Leu]
H2O2 production (HRP / o-dianisidine) and semicarbazone formation [1]: Semicarbazone formation was observed using D-Ala, D-Leu, but not D-Ser, D-Thr, or D-Lys

CC(C)CC(=N)C(=O)O [imino acid derived from Leu]
decrease of semicarbazone formation rate, 248 nm, imino acid generated in situ (UK114; imino acid from 5 mM L-Leu + LAAO or D-Leu + DAAO): UK114 activity using the imino acid produced by DAAO from D-Leu was indistinguishable

B1: recombinant goat UK114 (Capra hircus), thrombin-cleaved (enzyme, Capra hircus (goat))
chain: GSHMSSLVRRIISTAKAPAAIGPYSQAVLVDRTIYISGQLGMDPASGQLVPGGVVEEAKQALTNIGEILKAAGCDFTNVVKATVLLADINDFSAVNDVYKQYFQSSFPARAAYQVAALPKGGRVEIEAIAVQGPLTTASL
notes: they precede the initiator methionine of UK114; also called RidA; not shown: His6, N-terminal, cleaved
stoichiometry N [2]: 3
